Common to all, as to type: biochemical
The target in one test is T1, Lck (Homo sapiens, UniProt P06239).
T1 construct: Kinases are expressed as either kinase domains or full length constructs; made in house
As to the kind of experiment: Kinase inhibition assay (33P transfer), Lck. The conditions noted are these: read-out: Lck-1. In short, it runs like this:
(§1)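 Recombinant kinase-domain or full-length fusion proteins (GST or His tag) served as enzyme. Substrate poly(Glu,Tyr) 4:1 or poly(Arg,Ser) 3:1 was bound to the plate; transferred 33P was read by liquid scintillation following acid washing.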

For a further test, the target named is T2, Zap-70 (Homo sapiens, UniProt P43403).
T2 construct: Kinases are expressed as either kinase domains or full length constructs; made in house
T2 sequence (P43403 1-619): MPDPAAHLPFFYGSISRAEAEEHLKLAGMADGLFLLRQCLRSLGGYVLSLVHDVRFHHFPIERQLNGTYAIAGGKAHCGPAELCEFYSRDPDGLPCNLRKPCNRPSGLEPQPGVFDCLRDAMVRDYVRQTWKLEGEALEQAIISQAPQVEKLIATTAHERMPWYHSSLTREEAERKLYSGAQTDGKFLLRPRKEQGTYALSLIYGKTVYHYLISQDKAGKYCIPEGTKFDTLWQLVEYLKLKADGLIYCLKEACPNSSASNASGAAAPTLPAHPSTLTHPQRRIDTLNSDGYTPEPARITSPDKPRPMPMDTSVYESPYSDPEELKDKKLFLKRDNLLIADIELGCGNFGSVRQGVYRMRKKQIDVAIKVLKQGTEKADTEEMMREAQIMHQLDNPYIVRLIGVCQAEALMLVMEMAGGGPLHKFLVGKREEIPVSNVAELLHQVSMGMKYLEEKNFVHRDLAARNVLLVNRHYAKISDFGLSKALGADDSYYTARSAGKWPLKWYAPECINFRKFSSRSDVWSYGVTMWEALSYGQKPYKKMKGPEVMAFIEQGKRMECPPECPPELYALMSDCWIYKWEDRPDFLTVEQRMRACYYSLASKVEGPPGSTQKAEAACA
Nature of the test: Kinase inhibition assay (33P transfer), Zap-70. Particulars: read-out: Zap-1. In short, it runs like this:
as §1

A further test addresses T3, Itk (Homo sapiens, UniProt Q08881).
T3 construct: Kinases are expressed as either kinase domains or full length constructs; made in house
T3 sequence (Q08881 1-620): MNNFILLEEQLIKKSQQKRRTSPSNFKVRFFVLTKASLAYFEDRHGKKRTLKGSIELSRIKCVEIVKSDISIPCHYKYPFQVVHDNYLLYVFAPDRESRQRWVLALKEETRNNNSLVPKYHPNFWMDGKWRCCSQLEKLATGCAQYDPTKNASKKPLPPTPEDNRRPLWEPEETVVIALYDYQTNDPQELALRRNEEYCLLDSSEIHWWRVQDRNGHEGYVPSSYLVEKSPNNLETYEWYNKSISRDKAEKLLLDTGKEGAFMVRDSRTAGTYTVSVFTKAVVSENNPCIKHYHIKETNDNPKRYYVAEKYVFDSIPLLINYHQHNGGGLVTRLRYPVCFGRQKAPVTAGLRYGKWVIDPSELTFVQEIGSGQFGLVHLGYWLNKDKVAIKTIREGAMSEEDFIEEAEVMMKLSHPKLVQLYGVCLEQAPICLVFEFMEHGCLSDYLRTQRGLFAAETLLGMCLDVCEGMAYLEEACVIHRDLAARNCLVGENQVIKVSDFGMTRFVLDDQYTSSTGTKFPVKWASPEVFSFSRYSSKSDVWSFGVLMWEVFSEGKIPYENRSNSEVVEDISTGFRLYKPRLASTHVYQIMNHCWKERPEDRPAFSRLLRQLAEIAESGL
Nature of the test: Kinase inhibition assay (33P transfer), Itk. The conditions noted are these: read-out: Itk-1. The method in brief:
(§2)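 Kinase domains or full-length enzymes, GST- or polyHis-tagged, were expressed in E. coli or baculovirus High Five cells and affinity-purified. Transfer of 33PO4 from ATP onto plate-bound poly(Glu,Tyr) 4:1 or poly(Arg,Ser) 3:1 was counted by liquid scintillation after a 0.5% phosphoric acid wash. IC50 = concentration halving incorporation.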

The target in a further test is T4, EGFR (Homo sapiens, UniProt P00533).
T4 construct: Kinases are expressed as either kinase domains or full length constructs; made in house
As to the kind of experiment: Kinase inhibition assay (33P transfer), EGFR. The conditions noted are these: Table 2, kinase inhibition class; read-out: EGFR-1. The method in brief: as §2

The target in another test is T5, Kdr (Homo sapiens, UniProt P35968).
T5 construct: Kinases are expressed as either kinase domains or full length constructs; made in house
Nature of the test: Kinase inhibition assay (33P transfer), Kdr. The conditions noted are these: read-out: KDR-1. In short, it runs like this:
as §1

Another test concerns the target T6, c-Met (Homo sapiens, UniProt P08581).
T6 construct: Kinases are expressed as either kinase domains or full length constructs; made in house
As to the kind of experiment: Kinase inhibition assay (33P transfer), c-Met. The conditions noted are these: Table 2, kinase inhibition class; read-out: Met-1. The method in brief: as §2

A further test deals with T7, AKT (Homo sapiens, UniProt Q9Y243).
T7 construct: Kinases are expressed as either kinase domains or full length constructs; made in house
Nature of the test: Kinase inhibition assay (33P transfer), AKT. Particulars: Table 2, kinase inhibition class; read-out: AKT3-1. The source says:
The inhibitor compounds described herein are screened in the following manner. Kinases suitable for use in the following protocol to determine kinase activity of the compounds described herein include, -but are not limited to: Lck, Lyn, Src, Fyn, Syk, Zap-70, Itk, Tec, Btk, EGFR, ErbB2, Kdr, Flt-1, Flt-3, Tek, c-Met, InsR, and AKT.
Kinases are expressed as either kinase domains or full length constructs fused to glutathione S-transferase (GST) or polyHistidine tagged fusion proteins in either E. colior Baculovirus-High Five expression systems. […] In some instances, kinases are co-expressed or mixed with purified or partially purified regulatory polypeptides prior to measurement of activity.
Briefly, The transfer of ^33PO4 from ATP to the synthetic substrates poly(Glu, Tyr) 4:1 or poly(Arg, Ser) 3:1 attached to the bioactive surface of microtiter plates serves as the basis to evaluate enzyme activity. After an incubation period, the amount of phosphate transferred is measured by first washing the plate with 0.5% phosphoric acid, adding liquid scintillant, and then counting in a liquid scintillation detector.

Each structure is given as a SMILES string. Read-outs that look alike come from different tables or passages of the source. Bounds are passed on as bounds.

T7 sequence (Q9Y243 whole entry, the tested form may be a part): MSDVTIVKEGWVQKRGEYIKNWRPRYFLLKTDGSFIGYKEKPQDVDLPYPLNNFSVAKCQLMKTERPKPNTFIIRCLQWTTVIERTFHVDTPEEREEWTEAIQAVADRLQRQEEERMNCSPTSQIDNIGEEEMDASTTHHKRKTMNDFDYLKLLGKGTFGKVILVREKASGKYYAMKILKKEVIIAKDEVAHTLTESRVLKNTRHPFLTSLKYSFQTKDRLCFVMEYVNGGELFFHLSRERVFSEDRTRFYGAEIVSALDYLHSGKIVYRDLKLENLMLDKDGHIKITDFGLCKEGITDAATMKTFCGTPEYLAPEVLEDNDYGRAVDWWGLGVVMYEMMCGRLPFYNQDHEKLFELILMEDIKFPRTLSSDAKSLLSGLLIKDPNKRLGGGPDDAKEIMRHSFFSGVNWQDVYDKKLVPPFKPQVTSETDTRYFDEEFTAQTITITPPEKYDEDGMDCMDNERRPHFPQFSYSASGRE
T1 sequence (P06239 whole entry, species assumed, the tested form may be a part): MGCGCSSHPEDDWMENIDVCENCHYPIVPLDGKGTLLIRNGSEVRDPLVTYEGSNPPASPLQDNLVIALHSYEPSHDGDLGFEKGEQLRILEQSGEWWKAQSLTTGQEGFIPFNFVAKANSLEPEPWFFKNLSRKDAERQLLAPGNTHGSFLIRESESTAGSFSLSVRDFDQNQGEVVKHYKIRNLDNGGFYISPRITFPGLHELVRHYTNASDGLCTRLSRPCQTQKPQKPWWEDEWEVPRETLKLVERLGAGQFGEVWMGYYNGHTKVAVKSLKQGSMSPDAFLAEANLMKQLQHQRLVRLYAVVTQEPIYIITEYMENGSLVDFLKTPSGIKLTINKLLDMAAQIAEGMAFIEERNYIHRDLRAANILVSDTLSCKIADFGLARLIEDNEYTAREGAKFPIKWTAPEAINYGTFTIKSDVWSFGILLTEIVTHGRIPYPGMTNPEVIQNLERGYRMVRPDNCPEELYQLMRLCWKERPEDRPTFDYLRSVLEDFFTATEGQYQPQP
T4 sequence (P00533 25-1210, species assumed): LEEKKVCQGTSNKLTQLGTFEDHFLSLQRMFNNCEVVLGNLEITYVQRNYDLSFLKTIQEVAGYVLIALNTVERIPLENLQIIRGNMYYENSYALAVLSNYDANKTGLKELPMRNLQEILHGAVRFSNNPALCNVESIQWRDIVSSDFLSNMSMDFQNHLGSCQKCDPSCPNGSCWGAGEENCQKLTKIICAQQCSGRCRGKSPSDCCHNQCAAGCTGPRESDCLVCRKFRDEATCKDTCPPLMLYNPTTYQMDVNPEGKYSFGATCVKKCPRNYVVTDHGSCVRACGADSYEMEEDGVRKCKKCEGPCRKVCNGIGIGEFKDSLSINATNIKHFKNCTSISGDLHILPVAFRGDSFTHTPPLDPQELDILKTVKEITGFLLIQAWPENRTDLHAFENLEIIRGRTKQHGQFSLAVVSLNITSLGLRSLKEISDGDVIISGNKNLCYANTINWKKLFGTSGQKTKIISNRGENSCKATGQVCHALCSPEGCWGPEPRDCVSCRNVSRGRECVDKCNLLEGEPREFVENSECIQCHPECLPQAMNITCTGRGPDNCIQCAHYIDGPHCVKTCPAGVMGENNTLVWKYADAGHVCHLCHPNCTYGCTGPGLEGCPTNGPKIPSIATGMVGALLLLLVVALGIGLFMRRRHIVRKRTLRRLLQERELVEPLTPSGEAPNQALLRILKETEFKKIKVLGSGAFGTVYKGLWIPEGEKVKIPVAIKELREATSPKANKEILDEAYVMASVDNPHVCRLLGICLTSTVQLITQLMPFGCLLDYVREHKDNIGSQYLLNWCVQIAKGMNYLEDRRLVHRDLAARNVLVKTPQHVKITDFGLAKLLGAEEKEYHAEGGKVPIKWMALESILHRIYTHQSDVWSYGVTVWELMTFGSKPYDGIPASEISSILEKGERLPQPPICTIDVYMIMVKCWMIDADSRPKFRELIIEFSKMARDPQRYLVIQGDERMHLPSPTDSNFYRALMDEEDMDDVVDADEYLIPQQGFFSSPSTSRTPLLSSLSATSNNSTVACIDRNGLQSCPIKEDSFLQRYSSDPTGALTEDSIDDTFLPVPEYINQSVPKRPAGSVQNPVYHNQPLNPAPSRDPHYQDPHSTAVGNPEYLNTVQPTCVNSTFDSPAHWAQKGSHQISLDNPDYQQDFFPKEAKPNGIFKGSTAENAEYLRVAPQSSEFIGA
T6 sequence (P08581 25-1390): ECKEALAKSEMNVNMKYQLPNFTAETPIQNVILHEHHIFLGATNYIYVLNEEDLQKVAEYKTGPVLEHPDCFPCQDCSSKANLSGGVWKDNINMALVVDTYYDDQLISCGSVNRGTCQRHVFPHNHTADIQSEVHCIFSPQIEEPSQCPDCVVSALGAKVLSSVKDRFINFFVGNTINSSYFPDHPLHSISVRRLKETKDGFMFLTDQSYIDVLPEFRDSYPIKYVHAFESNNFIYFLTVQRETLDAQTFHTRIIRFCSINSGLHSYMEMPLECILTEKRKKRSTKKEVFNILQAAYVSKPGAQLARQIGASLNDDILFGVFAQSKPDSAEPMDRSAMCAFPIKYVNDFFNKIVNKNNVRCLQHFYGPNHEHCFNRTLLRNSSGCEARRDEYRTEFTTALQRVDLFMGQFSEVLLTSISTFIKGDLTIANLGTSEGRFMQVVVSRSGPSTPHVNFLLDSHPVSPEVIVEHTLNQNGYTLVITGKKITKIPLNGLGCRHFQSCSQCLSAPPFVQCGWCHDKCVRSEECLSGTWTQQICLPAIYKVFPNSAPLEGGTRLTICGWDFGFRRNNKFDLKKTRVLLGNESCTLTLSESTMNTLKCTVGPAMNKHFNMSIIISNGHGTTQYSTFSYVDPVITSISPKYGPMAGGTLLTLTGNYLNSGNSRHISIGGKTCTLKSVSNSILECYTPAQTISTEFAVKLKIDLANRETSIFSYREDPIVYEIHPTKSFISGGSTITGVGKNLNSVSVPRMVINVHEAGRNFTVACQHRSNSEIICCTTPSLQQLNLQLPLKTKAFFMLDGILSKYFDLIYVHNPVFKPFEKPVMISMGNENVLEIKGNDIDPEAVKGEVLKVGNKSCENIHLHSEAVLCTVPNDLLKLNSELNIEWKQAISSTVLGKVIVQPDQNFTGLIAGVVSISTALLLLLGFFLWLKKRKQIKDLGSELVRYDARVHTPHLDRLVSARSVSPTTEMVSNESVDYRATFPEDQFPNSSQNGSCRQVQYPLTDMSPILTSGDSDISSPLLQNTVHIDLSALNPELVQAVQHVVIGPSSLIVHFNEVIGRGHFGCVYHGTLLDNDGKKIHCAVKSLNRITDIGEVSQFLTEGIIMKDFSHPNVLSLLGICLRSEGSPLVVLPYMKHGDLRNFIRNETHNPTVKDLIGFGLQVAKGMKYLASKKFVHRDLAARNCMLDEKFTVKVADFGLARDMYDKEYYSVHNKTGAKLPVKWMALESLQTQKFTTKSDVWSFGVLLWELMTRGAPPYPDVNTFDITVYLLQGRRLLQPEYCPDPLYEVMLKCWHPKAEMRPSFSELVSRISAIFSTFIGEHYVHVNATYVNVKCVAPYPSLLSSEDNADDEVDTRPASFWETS
T5 sequence (P35968 20-1356, species assumed): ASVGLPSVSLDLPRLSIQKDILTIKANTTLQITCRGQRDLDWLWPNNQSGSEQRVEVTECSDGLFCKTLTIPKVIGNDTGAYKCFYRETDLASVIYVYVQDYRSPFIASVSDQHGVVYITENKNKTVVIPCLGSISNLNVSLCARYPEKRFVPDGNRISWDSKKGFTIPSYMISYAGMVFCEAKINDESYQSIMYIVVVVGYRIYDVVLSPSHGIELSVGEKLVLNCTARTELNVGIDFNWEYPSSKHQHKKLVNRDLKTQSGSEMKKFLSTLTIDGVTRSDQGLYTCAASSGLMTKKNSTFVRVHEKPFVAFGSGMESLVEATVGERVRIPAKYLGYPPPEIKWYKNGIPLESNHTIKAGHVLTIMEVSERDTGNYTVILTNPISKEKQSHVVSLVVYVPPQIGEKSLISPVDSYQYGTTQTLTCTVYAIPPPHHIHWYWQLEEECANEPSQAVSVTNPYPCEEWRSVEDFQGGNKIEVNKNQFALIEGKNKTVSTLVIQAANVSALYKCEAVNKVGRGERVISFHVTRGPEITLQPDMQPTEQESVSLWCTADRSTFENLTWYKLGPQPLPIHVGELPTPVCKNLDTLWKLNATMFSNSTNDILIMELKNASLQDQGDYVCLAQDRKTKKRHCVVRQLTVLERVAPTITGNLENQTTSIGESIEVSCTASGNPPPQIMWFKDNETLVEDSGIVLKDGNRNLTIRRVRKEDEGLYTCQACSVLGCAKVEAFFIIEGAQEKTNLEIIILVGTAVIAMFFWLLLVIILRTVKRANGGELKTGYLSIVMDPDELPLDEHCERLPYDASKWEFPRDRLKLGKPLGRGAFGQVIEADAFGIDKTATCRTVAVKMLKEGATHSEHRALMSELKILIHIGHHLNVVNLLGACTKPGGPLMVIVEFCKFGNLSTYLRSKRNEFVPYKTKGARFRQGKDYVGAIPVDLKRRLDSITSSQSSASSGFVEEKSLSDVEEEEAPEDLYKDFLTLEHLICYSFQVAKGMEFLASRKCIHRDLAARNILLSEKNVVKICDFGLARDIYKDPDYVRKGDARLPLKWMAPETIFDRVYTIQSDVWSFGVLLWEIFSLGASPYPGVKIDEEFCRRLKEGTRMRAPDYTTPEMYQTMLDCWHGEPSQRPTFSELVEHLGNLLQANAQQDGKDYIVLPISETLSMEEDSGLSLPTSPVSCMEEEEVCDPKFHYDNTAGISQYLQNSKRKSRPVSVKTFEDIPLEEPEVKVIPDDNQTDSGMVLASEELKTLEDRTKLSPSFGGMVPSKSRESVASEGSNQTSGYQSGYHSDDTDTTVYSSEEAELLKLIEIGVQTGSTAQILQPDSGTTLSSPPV

`CNc1ncnc(Nc2cc(OC)c(OC)c(OC)c2)n1` [Compound 409]: the IC50 at Lck (Table 3) was 12 to 15.4 µM; on Zap-70 (Table 3), > 15.4 µM; at Itk (Table 3), > 15.4 µM; on EGFR it was > 15.4 µM; on Kdr (Table 3) it was > 15.4 µM; on c-Met it was > 15.4 µM. Moreover, at AKT, the IC50 is > 15.4 µM.
With `O=c1[nH]c2ccccc2n1-c1ncnc(Nc2ccc3ncccc3c2)n1` [Compound 687], the IC50 is 1.13 to 6.75 µM at Lck; > 12.7 µM at Zap-70; 9.85 to 12.7 µM on Itk; 9.85 to 12.7 µM on EGFR; 1.13 to 6.75 µM at Kdr; > 12.7 µM on c-Met. At AKT, the IC50 was > 12.7 µM.
Consider `CC(C)(C)c1cc(Nc2ncnc(Nc3ccc(C(N)=O)cc3)n2)[nH]n1` [Compound 502], for which the IC50 was 1.14 to 6.81 µM on Lck; > 12.8 µM at Zap-70; 1.14 to 6.81 µM on Itk; 1.14 to 6.81 µM on EGFR; 1.14 to 6.81 µM at Kdr; 1.14 to 6.81 µM on c-Met. Moreover, on AKT, the IC50 lay within 1.14 to 6.81 µM.
Consider `COc1ccc(Nc2ncnc(-n3c(=O)[nH]c4ccccc43)n2)cn1` [Compound 489], for which the IC50 at Lck, on Zap-70, on Itk, on EGFR, at Kdr and on c-Met was > 13.4 µM throughout. Moreover, the IC50 at AKT was > 13.4 µM.
Regarding `O=c1[nH]c2ccccc2n1-c1ncnc(Nc2cccc3ncccc23)n1` [Compound 686], the IC50 at Lck, at Zap-70, at Itk, on EGFR, at Kdr and at c-Met was > 12.7 µM throughout. The IC50 on AKT was > 12.7 µM.
Turning to `COc1cc(Nc2ncnc(Nc3nc4ccccc4s3)n2)cc(OC)c1OC` [Compound 469], the IC50 at Lck was > 11 µM; at Zap-70, > 11 µM; on Itk, > 11 µM; at EGFR it was > 11 µM; at Kdr, 0.975 to 5.85 µM; at c-Met, > 11 µM. Besides, the IC50 at AKT is > 11 µM.
As for `O=c1[nH]c2ccccc2n1-c1ncnc(Nc2ccc3[nH]ncc3c2)n1` [Compound 685], the IC50 at Lck, on Zap-70, at Itk, at EGFR, on Kdr and on c-Met was > 13.1 µM throughout. For the same compound, the IC50 at AKT was > 13.1 µM.
Regarding `COc1cc(Nc2ncnc(-n3c(=O)oc4ccccc43)n2)cc(OC)c1OC` [Compound 423], the IC50 on Lck (Table 3) is 1.01 to 6.07 µM; at Zap-70 (Table 3) it was > 11.4 µM; at Itk (Table 3), > 11.4 µM; at EGFR, 1.01 to 6.07 µM; on Kdr (Table 3), 1.01 to 6.07 µM; on c-Met, > 11.4 µM. For the same compound, the IC50 on AKT fell in the range of 6.07 to 8.85 µM.
Take `COC(=O)n1c(=O)n(-c2ncnc(Nc3cc(OC)c(OC)c(OC)c3)n2)c2ccccc21` [Compound 1032]: the IC50 was > 9.95 µM at Lck; > 9.95 µM at Zap-70; > 9.95 µM at Itk; > 9.95 µM on EGFR; 0.884 to 5.3 µM on Kdr; > 9.95 µM at c-Met. Besides, the IC50 on AKT is > 9.95 µM.
With `Clc1ncnc(Nc2cc(-c3ccccc3)n[nH]2)n1` [Compound 976], the IC50 on Lck is > 16.5 µM; at Zap-70, 8.8 to 12.8 µM; on Itk it was > 16.5 µM; on EGFR, > 16.5 µM; on Kdr it was > 16.5 µM; on c-Met, > 16.5 µM. The IC50 on AKT was > 16.5 µM.
With `CC(C)(C)c1cc(Nc2ncnc(Nc3cccc(C(N)=O)c3)n2)[nH]n1` [Compound 500], the IC50 was 1.14 to 6.81 µM at Lck; > 12.8 µM at Zap-70; 1.14 to 6.81 µM on Itk; 1.14 to 6.81 µM at EGFR; 1.14 to 6.81 µM on Kdr; 1.14 to 6.81 µM on c-Met. Further, the IC50 on AKT was > 12.8 µM.
As to `COc1cc(Nc2ncnc(-c3cccnc3NCc3ccccn3)n2)cc(OC)c1OC` [Compound 1080], the IC50 on Lck is 5.39 to 7.86 µM; on Zap-70 it was > 10.1 µM; at Itk, > 10.1 µM; at EGFR, > 10.1 µM; at Kdr, < 0.898 µM; at c-Met, > 10.1 µM. Also, at AKT, the IC50 was > 10.1 µM.
As to `CC(C)(C)c1cc(Nc2ncnc(Nc3cccc(CO)c3)n2)[nH]n1` [Compound 499], the IC50 on Lck was 1.18 to 7.07 µM; at Zap-70, > 13.3 µM; at Itk, 1.18 to 7.07 µM; at EGFR it was 1.18 to 7.07 µM; on Kdr, 1.18 to 7.07 µM; on c-Met, 1.18 to 7.07 µM. For the same compound, the IC50 on AKT was > 13.3 µM.
Regarding `CC[C@H]1CN(c2ccc(-c3ncnc(Nc4cc(OC)c(OC)c(OC)c4)n3)cn2)CCN1` [Compound 446], the IC50 on Lck (Table 3), at Zap-70 (Table 3), on Itk (Table 3), at EGFR, at Kdr (Table 3) and on c-Met was > 9.97 µM in each case. In addition, the IC50 at AKT is > 9.97 µM.
Regarding `C=CCNc1ncccc1-c1ncnc(Nc2ccc(C(N)=O)cc2)n1` [Compound 1081], the IC50 on Lck was 1.15 to 6.91 µM; at Zap-70 it was > 13 µM; on Itk, > 13 µM; at EGFR it was > 13 µM; at Kdr, < 1.15 µM; on c-Met, > 13 µM. Further, the IC50 at AKT was > 13 µM.
Regarding `CC(=O)Nc1ccc(Nc2ncnc(-n3c(N)nc4ccccc43)n2)cc1` [Compound 475], the IC50 is 1.11 to 6.66 µM on Lck; > 12.5 µM on Zap-70; 1.11 to 6.66 µM on Itk; > 12.5 µM at EGFR; < 1.11 µM on Kdr; 6.66 to 9.71 µM at c-Met. Further, the IC50 on AKT is > 12.5 µM.
Consider `O=c1[nH]c2ccccc2n1-c1ncnc(Nc2ccc(Cl)cc2)n1` [Compound 458], for which the IC50 at Lck (Table 3) was > 13.3 µM; at Zap-70 (Table 3), > 13.3 µM; at Itk (Table 3), > 13.3 µM; at EGFR it was > 13.3 µM; at Kdr (Table 3) it was 1.18 to 7.08 µM; on c-Met it was 7.08 to 10.3 µM. For the same compound, the IC50 on AKT was > 13.3 µM.
With `O=c1[nH]c2ccccc2n1-c1ncnc(Nc2ccc3ccccc3c2)n1` [Compound 684], the IC50 at Lck is > 12.7 µM; at Zap-70, > 12.7 µM; at Itk, > 12.7 µM; on EGFR, > 12.7 µM; on Kdr it was 6.77 to 9.88 µM; on c-Met it was > 12.7 µM. Besides, on AKT, the IC50 was > 12.7 µM.
